According to the NIST ThermoML archive (doi:10.1016/j.jct.2016.02.016):

Experiments:
[1] = xn = mol fraction of the nth substance listed; conditions: 100 kPa, Liquid; for speed of sound: Frequency=3 MHz, Sing-around technique in a fixed-path interferometer; for mass density: Vibrating tube method
[2] = refractive index (Na D-line) (dimensionless); xn = mol fraction of the nth substance listed; conditions: 100 kPa, Liquid, Standard Abbe refractometry

CC(C)=O [acetone] + CN(C)C=O
Conditions | mass density, [1] [kg/m3] | refractive index, [2] | speed of sound, [1] [m/s]
293.15 K, x2 = 0 | 790.19 | 1.35845 | 1183.6
293.15 K, x2 = 0.0503 | 799.565 | 1.36286 | 1200.1
293.15 K, x2 = 0.1057 | 809.645 | 1.3677 | 1218
293.15 K, x2 = 0.1529 | 818.017 | 1.37155 | 1232.9
293.15 K, x2 = 0.1992 | 826.191 | 1.37532 | 1247.6
293.15 K, x2 = 0.2475 | 834.489 | 1.37922 | 1262.6
293.15 K, x2 = 0.2981 | 843.136 | 1.38311 | 1278.3
293.15 K, x2 = 0.3458 | 851.059 | 1.38685 | 1292.6
293.15 K, x2 = 0.3942 | 859.037 | 1.3905 | 1307.4
293.15 K, x2 = 0.4516 | 868.376 | 1.39472 | 1324.6
293.15 K, x2 = 0.4973 | 875.647 | 1.398 | 1338.1
293.15 K, x2 = 0.5476 | 883.523 | 1.40156 | 1352.9
293.15 K, x2 = 0.599 | 891.359 | 1.40511 | 1367.5
293.15 K, x2 = 0.6521 | 899.454 | 1.40867 | 1382.9
293.15 K, x2 = 0.7051 | 907.302 | 1.41226 | 1397.8
293.15 K, x2 = 0.7538 | 914.504 | 1.41537 | 1411.4
293.15 K, x2 = 0.8063 | 921.993 | 1.41877 | 1425.7
293.15 K, x2 = 0.8441 | 927.346 | 1.42113 | 1436
293.15 K, x2 = 0.9022 | 935.518 | 1.42474 | 1451.7
293.15 K, x2 = 0.9471 | 941.723 | 1.42742 | 1463.7
298.15 K, x2 = 0 | 784.43 | 1.35386 | 1163.6
298.15 K, x2 = 0.05 | 793.781 | 1.35901 | 1180.1
298.15 K, x2 = 0.127 | 807.814 | 1.3664 | 1205.5
298.15 K, x2 = 0.1485 | 811.673 | 1.36834 | 1212.5
298.15 K, x2 = 0.1908 | 819.252 | 1.37223 | 1226.2
298.15 K, x2 = 0.2492 | 829.349 | 1.37711 | 1244.6
298.15 K, x2 = 0.297 | 837.55 | 1.38103 | 1259.6
298.15 K, x2 = 0.3399 | 844.898 | 1.38441 | 1273.1
298.15 K, x2 = 0.3997 | 854.838 | 1.38893 | 1291.5
298.15 K, x2 = 0.4461 | 862.361 | 1.39235 | 1305.3
298.15 K, x2 = 0.4978 | 870.632 | 1.39595 | 1320.8
298.15 K, x2 = 0.549 | 878.71 | 1.39951 | 1336.2
298.15 K, x2 = 0.5893 | 884.968 | 1.40233 | 1348.1
298.15 K, x2 = 0.6413 | 892.941 | 1.40581 | 1363.3
298.15 K, x2 = 0.6822 | 898.928 | 1.40851 | 1374.7
298.15 K, x2 = 0.7435 | 908.066 | 1.41236 | 1392.3
298.15 K, x2 = 0.7945 | 915.398 | 1.41552 | 1406.4
298.15 K, x2 = 0.8342 | 921.109 | 1.41805 | 1417.5
298.15 K, x2 = 0.8801 | 927.621 | 1.4209 | 1430.1
298.15 K, x2 = 0.9377 | 935.649 | 1.42451 | 1445.8
303.15 K, x2 = 0 | 778.63 | – | 1139.9
303.15 K, x2 = 0.0571 | 789.325 | – | 1159
303.15 K, x2 = 0.1075 | 798.734 | – | 1175.8
303.15 K, x2 = 0.148 | 805.999 | – | 1188.9
303.15 K, x2 = 0.2001 | 815.316 | – | 1205.7
303.15 K, x2 = 0.2528 | 824.518 | – | 1222.4
303.15 K, x2 = 0.3003 | 832.657 | – | 1237.3
303.15 K, x2 = 0.3487 | 840.866 | – | 1252.5
303.15 K, x2 = 0.392 | 848.12 | – | 1265.8
303.15 K, x2 = 0.4547 | 858.369 | – | 1284.8
303.15 K, x2 = 0.4991 | 865.505 | – | 1298.1
303.15 K, x2 = 0.5422 | 872.357 | – | 1310.9
303.15 K, x2 = 0.6046 | 882.041 | – | 1329.2
303.15 K, x2 = 0.6507 | 889.133 | – | 1342.6
303.15 K, x2 = 0.6986 | 896.27 | – | 1356.3
303.15 K, x2 = 0.7493 | 903.843 | – | 1370.7
303.15 K, x2 = 0.7975 | 910.848 | – | 1384.2
303.15 K, x2 = 0.8442 | 917.613 | – | 1397.1
303.15 K, x2 = 0.8972 | 925.06 | – | 1411.5
303.15 K, x2 = 0.9411 | 931.137 | – | 1423.4
